Measurements taken from patent publication US12207655B2, “Protoporphyrin IX derivatives and use thereof to improve the health of plants” (priority 2019, dated 2025).

What was measured:
[1] = system: Pseudomonas syringae pv. tabaci; experiment: Photodynamic control of Pseudomonas syringae pv. tabaci in PBS, colony counts after illumination; type: cell-based; conditions: 30 min dark then 1 hour illumination (about 1000 μmol/m2/s PAR), PBS control 8.7
Experimental: In this example, control of the gram-negative bacterial plant pathogen Pseudomonas syringae pv. tabaci with PP IX and modified PP IX was assessed, with and without chelating agents. Treatments were prepared in Phosphate Buffered Saline (PBS) in 96 well plates at desired concentrations. A bacterial suspension was inoculated into the PBS and incubated at 28° C. in the dark for 30 minutes. After 30 minutes, the 96 well plate was placed under illumination for 1 hour (at 21° C.). Following illumination, bacterial suspensions were serially diluted and 10 μL of each dilution is spread uniformly on Tryptic Soy Agar (TSA) plates and placed in the dark in an incubator at 28° C. for 48 hours. After 48 hours, bacterial colonies were counted, and the results were log transformed (log colony forming units (CFU)/mL). The relative inactivation was determined by taking the difference between log CFU (PBS control) and log CFU (treatments). Sample Illumination was provided by LED lights (Heliospectra RX30) emitting about 1000 μmol/m^2/s photosynthetically active radiation (PAR).

Sclerotinia homoeocarpa = experiment: Control of dollar spot fungus: radial growth of fungal plugs on PDA after treatment in PBS, dark vs light; type: cell-based; conditions: 31 μM + 0.21% BrijO10:ArlasolveDMI (1:4); for Mean Radial Growth: growth between 24 and 48 hours at 21° C; for % Inhibition: relative to non-amended control
Experimental: In this example, control of dollar spot fungus (Sclerotinia homoeocarpa) with PP IX and modified PP IX was assessed. Treatments were prepared in Phosphate Buffered Saline (PBS) in 24 well plates (in duplicates for light vs. dark incubation) at desired concentrations. Then, a 5 mm diameter plug of a Sclerotinia homoeocarpa isolate (3 isolates total tested) was inoculated into the PBS and incubated at 21° C. in the dark for 2 hours. After 2 hours, one of the 24 well plates (with isolates in triplicate) was left in the dark and one 24 well plate was placed under illumination for 1 hour (all at […]). Following illumination, fungal plugs were removed from PBS, blotted dry on sterile filter paper and transferred to non-amended Potato Dextrose Agar (PDA). Radial growth of the fungus was monitored daily until the growth of S. homoeocarpa reaches the edge of the Petri-dish. Illumination was provided by LED lights emitting about 1000 μmol/m2/s photosynthetically active radiation (PAR).

Protoporphyrin IX disodium salt [PP IX disodium salt]
log CFU/ml ([1]; 10 μM + 5 mM NaEDTA in PBS): 3.8 log CFU/ml
log CFU/ml ([1]; 10 μM in PBS, no chelating agent): 7.4 log CFU/ml
Mean Radial Growth (Sclerotinia homoeocarpa; Dark (no light exposure), PBS control 10.1): 10.5
% Inhibition (Sclerotinia homoeocarpa; Dark (no light exposure)): −3.8%
Mean Radial Growth (Sclerotinia homoeocarpa; Exposed to light for 1 hour (1000 PAR), PBS control 10.2): 0.0
% Inhibition (Sclerotinia homoeocarpa; Exposed to light for 1 hour (1000 PAR)): 100.0%
